Assay in all cases: NCI anticancer screen, dose series, 48 h
The test system of experiment [1] is RXF 393 renal.
Experiment [2] concerns SR leukemia.
Experiment [3] deals with 786-0 renal.
Experiment [4] concerns EKVX NSCLC.
Experiment [5] deals with HL-60(TB) leukemia.
Experiment [6] relates to UO-31 renal.
Experiment [7] deals with SK-MEL-2 melanoma.
Experiment [8] deals with SF-295 CNS.
Experiment [9] has as its system A498 renal.
Experiment [10] concerns NCI-H226 lung.

The structures appear in SMILES notation.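 Assay format: 96-well plates, 48-hour exposure. At the GI50, growth is halved. TGI marks complete inhibition of growth.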 Where a SMILES comes first, the peptide text is derived from it. [ ]: non-standard residue; d: D form. NMeY = CN[C@@H](Cc1ccc(O)cc1)C(=O)O; dNMeF = CN[C@H](Cc1ccccc1)C(=O)O; Sar = CNCC(=O)O

Consider `CC[C@H](C)[C@@H]1NC(=O)[C@H](Cc2ccc(O)cc2)N(C)C(=O)[C@H](Cc2ccccc2)NC(=O)CN(C)C(=O)[C@@H]2CCCN2C(=O)[C@@H](Cc2ccccc2)N(C)C(=O)[C@H](CC(C)C)NC1=O` (cyclo(F[NMeY]IL[dNMeF]P[Sar])), for which the GI50 in experiment [1] is 519 nM; in experiment [2] it was 123 nM; in experiment [3] it was 0.467 µM; in [4], 301 nM; in [5] it was 605 nM; in experiment [6], 2.63 µM. For the same molecule, the GI50 in experiment [7] is 0.327 µM; in [8], 0.428 µM; in [9] it was 695 nM; in [10], 0.768 µM. In addition, the TGI in experiment [1] amounted to 3.27 µM; in experiment [2] it was 6.28 µM; in experiment [3], 5.75 µM; in experiment [4] it was 6.47 µM; in experiment [5], 3.3 µM; in [6], 13.1 µM. The TGI in experiment [7] amounted to 1.91 µM; in experiment [8], 3.5 µM; in experiment [9], 6.11 µM; in [10], 8.18 µM.
In the case of `COc1cccc(-n2ncc3c(N/N=C/c4ccc(S(C)(=O)=O)cc4)ncnc32)c1`, the GI50 in [1] is 2200 nM; in experiment [2], over 12400 nM; in experiment [3], 7.1 µM; in experiment [4], over 22900 nM; in experiment [5], over 25000 nM; in experiment [6] it was 5.77 µM. Also, the GI50 in [7] was 9.94 µM; in experiment [8], 12.3 µM; in experiment [9], 750 nM; in [10], 5.46 µM. Moreover, the TGI in [1] was 8.76 µM; in [2] it was over 25 µM; in [3] it was 20.1 µM; in [4], over 25 µM; in experiment [5] it was over 25 µM; in experiment [6], 14.3 µM. Further, the TGI was over 25 µM in experiment [7], over 25 µM in experiment [8], 11.3 µM in experiment [9] and 18.1 µM in experiment [10].
As for `NCCCC1NC(=O)/C(=C(O)/C=C/C2CCC[C@@H]2CC2SCCS2)C1=O` (stereo not given in full), the TGI in experiment [1] was over 100 µM; in experiment [2] it was over 100 µM; in experiment [3], over 100 µM; in experiment [4], over 100 µM; in [5], 64.3 µM; in experiment [6], over 100 µM. Further, the TGI in [7], in experiment [8], in experiment [9] and in experiment [10] was over 100 µM each time.
`O=C1[C@@H]2C3SC(c4ccccc43)[C@@H]2C(=O)N1c1ccccc1`: the TGI in [1], in experiment [2], in experiment [3], in experiment [4], in experiment [5] and in experiment [6] was over 100 µM throughout. Moreover, the TGI in [7], in [8], in experiment [9] and in [10] was over 100 µM each time.

(Values after PubChem BioAssay (NCI).)
